Read-outs that look alike come from different tables or passages of the source. Bounds are passed on as bounds.

Experiment [1] addresses human ADAMTS6 (Homo sapiens (Human), UniProt Q9UKP5). The experiment can be described thus: hADAMTS-6 fluorescent based protease assay (520 MMP FRET substrate XII). The note with it: 37° C. for 2 h; read-out: hADAMTS-6 potency IC50. Format: biochemical. The procedure:
The IC50 value for test compounds can be determined in a fluorescent based protease assay.
The substrate contains sequence Arg-Pro-Lys-Pro-Tyr-Ala-Nva-Trp-Met-Lys (SEQ ID NO: 7) with attached a fluorescent probe and a quencher. Without ADAMTS6, the emission of the probe is quenched. If the substrate is cleaved by ADAMTS6, the emission of the probe is not quenched anymore. Inhibition of ADAMTS6 activity, will result in a decrease of the signal.
To perform the assay, 4 μL of a dilution series of compound in water, starting from 20 μM highest concentration, ⅕ dilution, is added to the wells. 2 ng ADAMTS6 enzyme is diluted in 25 mM Tris pH8.0, 0.05% CHAPS, 2.5 mM CaCl2 in a total volume of 26 μL (final concentration 0.73 nM). The reaction is started by addition of 10 μL of 1 μM 520 MMP FRET Substrate XII (final concentration, diluted in same buffer as described above) and the mixture is incubated at 37° C. for 2 h. […] After this incubation, cleavage of the substrate is measured using the Envision (Perkin Elmer, exc485/em530).

Experiment [2] concerns the target human ADAMTS4 (Homo sapiens (Human), UniProt O75173). In words: hADAMTS-4 TBIS-1 cleavage assay, Protocol 2. Type of experiment: biochemical.
The target of experiment [3] is human ADAMTS-5 (Homo sapiens (Human), UniProt Q9UNA0). The experiment can be described thus: hADAMTS-5 TBIS-1 cleavage assay, Protocol 3. Type of experiment: biochemical. The note with it: 90 min at 37° C., read-out: hADAMTS-5 potency IC50.
Description: The reaction is initiated by adding to the assay plate TBIS-1 (10 μL, 4.5 μM, Anaspec) in the same buffer.
Finally, the fluorescence is read on the Envision (Perkin Elmer) after an incubation of 90 min at 37° C. (Excitation 485 nm, emission 530).
Experiment [4] has as its target human TACE (Homo sapiens (Human), UniProt P78536). The experiment can be described thus: biochemical.
Description: Finally, the fluorescence is read on the Envision (Perkin Elmer) after an incubation of 75 min at room temperature (Excitation 485 nm, Emission 530).
The target in experiment [5] is T1, human MMP13 (Homo sapiens (Human), UniProt P45452). The experiment can be described thus: hMMP13 assay, Protocol 1 (390 MMP FRET Substrate I, Chemicon enzyme). The note with it: Protocol 1, human MMP13 (Chemicon), read-out: hMMP-13 potency IC50. Format: biochemical. Here is the method: (§1) Human MMP13 is preactivated by incubated the enzyme in the same buffer complemented with 1 mM freshly prepared p-Aminophenylmercuric acetate (AMPA) for 1 h at 37° C.

Experiment [6] concerns the target human MMP14 (Homo sapiens (Human), UniProt P50281). In words: hMMP14 assay (390 MMP FRET Substrate I). Format: biochemical. Particulars: human MMP14 (Biomol), read-out: hMMP-14 potency IC50.
Description: The basis for the assay is the cleavage of the substrate 390 MMP FRET Substrate I (Anaspec Cat #AS-27076) by human MMP14 (Biomol, Cat #SE-259).
The reaction is initiated by adding to the assay plate 390 MMP FRET Substrate I (10 μL, 2.5 μM) in the same buffer.
Finally, the fluorescence is read on the Envision (Perkin Elmer) after an incubation of 60 min at room temperature (Excitation 485 nm, Emission 530).
Experiment [7] addresses T1, human MMP13. The experiment can be described thus: hMMP13 assay, Protocol 2 (390 MMP FRET Substrate I, Enzo enzyme). Format: biochemical. Particulars: Protocol 2, human MMP13 (Enzo Life Sciences), read-out: hMMP-13 potency IC50. Here is the method:
as §1

The mark [8] stands for this setting: Protocol 2, 180 min at 37° C., read-out: ADAMTS4 potency IC50.

human ADAMTS4, sequence (O75173 213-837): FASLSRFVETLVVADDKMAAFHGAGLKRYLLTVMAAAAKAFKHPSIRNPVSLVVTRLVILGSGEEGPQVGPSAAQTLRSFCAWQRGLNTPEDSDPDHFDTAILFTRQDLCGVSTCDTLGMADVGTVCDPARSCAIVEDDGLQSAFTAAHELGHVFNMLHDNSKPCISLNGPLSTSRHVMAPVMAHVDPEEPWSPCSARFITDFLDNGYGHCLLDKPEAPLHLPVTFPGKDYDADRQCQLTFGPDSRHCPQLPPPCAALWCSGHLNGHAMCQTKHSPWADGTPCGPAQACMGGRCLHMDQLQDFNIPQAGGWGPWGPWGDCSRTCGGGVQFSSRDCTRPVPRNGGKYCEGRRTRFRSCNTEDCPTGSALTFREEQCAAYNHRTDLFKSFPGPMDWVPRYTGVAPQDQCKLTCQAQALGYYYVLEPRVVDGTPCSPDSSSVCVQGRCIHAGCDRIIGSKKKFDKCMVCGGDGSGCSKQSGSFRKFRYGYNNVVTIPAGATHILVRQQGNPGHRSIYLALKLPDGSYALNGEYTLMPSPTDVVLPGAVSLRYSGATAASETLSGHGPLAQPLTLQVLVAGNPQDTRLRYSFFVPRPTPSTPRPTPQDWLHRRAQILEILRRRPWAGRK
human TACE, sequence (P78536 215-671): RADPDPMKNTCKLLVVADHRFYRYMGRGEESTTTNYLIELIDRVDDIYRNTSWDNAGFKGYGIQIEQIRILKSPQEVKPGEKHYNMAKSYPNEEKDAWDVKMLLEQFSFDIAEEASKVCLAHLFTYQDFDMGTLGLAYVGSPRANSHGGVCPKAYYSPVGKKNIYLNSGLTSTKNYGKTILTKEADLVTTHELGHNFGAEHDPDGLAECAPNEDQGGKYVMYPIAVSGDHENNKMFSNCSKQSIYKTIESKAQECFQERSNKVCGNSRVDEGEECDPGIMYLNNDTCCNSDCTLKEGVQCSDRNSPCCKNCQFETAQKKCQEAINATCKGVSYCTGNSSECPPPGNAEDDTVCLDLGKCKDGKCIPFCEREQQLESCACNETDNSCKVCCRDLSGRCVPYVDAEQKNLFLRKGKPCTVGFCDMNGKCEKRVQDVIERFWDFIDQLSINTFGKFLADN
human ADAMTS-5, sequence (Q9UNA0 262-930): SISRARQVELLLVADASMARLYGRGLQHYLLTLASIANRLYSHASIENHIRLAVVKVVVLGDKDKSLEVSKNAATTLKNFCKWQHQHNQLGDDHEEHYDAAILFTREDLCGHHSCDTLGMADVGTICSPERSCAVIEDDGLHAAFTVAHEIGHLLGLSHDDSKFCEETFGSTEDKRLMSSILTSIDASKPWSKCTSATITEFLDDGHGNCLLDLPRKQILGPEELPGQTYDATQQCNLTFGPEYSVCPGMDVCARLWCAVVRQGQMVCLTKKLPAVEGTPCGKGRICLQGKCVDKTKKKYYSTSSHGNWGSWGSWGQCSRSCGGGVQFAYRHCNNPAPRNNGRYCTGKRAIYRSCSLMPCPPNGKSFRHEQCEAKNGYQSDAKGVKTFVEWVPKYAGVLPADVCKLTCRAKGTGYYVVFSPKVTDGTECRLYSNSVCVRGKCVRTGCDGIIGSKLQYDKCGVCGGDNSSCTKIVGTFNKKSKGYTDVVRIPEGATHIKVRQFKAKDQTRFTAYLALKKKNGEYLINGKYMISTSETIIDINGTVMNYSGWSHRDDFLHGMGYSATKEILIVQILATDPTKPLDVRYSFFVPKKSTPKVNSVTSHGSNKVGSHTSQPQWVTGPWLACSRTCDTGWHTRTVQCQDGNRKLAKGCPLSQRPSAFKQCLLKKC
human ADAMTS6, sequence (Q9UKP5 other isoform, or with tags, fused parts or gaps): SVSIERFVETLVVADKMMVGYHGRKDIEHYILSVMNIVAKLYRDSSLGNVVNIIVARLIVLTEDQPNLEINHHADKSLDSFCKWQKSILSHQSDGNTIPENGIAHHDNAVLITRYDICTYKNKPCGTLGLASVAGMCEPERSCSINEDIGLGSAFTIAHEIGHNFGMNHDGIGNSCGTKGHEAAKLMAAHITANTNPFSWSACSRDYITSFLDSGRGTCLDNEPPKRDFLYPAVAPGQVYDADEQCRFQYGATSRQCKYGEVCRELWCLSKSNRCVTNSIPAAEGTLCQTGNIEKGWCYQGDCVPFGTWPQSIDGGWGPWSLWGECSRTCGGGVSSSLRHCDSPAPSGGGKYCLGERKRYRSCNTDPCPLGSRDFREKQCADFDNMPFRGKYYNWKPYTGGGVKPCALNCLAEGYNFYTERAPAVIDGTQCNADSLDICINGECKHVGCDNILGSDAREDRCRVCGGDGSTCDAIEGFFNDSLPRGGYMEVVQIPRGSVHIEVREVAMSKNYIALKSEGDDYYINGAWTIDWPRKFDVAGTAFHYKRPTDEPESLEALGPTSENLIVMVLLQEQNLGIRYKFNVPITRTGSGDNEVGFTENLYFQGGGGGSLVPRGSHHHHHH

By IC50 is commonly meant the concentration needed to halve the response being measured. Turning to `COCC1(CC(C)C(=O)N2CCN(c3cc(F)c(F)c(OC)c3)[C@@H](C)C2)NC(=O)NC1=O` (mixture of isomers) [Cpd 46, 5-[3-[(3S)-4-(3,4-difluoro-5-methoxy-phenyl)-3-methyl-piperazin-1-yl]-2-methyl-3-oxo-propyl]-5-(methoxymethyl)imidazolidine-2,4-dione], the half-inhibitory concentration (IC50) in experiment [1] is 0.001 to 25 nM; in experiment [2] it was 25 to 50 nM; in experiment [3], 25 to 50 nM; in experiment [4], over 100 nM; in experiment [5], over 100 nM.

With `COCC1(CC(C)C(=O)N2CCN(c3ccc(Cl)c(OC)c3)[C@@H](C)C2)NC(=O)NC1=O` (mixture of isomers) [Cpd 47, 5-[3-[(3S)-4-(4-chloro-3-methoxy-phenyl)-3-methyl-piperazin-1-yl]-2-methyl-3-oxo-propyl]-5-(methoxymethyl)imidazolidine-2,4-dione], the IC50 in experiment [1] is 0.001 to 25 nM; in experiment [6] it was over 100 nM; in experiment [2], 25 to 50 nM; in experiment [3], 25 to 50 nM; in experiment [4] it was over 100 nM; in experiment [5], over 100 nM.

In the case of `COc1cc(N2CCN(C(=O)[C@@H](C)C[C@@]3(c4ccccn4)NC(=O)NC3=O)C[C@@H]2C)cc(F)c1F` (stereo in doubt) [Cpd 49, 5-[3-[(3 S)-4-(3,4-difluoro-5-methoxy-phenyl)-3-methyl-piperazin-1-yl]-2-methyl-3-oxo-propyl]-5-(2-pyridyl)imidazolidine-2,4-dione], the IC50 is 0.001 to 25 nM in experiment [1], 50 to 100 nM in experiment [2], 25 to 50 nM in experiment [3] and over 100 nM in experiment [4].

With `CCc1cc(N2CCN(C(=O)[C@@H](C)C[C@@]3(COC)NC(=O)NC3=O)C[C@@H]2C)ccc1Cl` (stereo in doubt) [Cpd 124, 5-[3-[(3S)-4-(4-chloro-3-ethyl-phenyl)-3-methyl-piperazin-1-yl]-2-methyl-3-oxo-propyl]-5-(methoxymethyl)imidazolidine-2,4-dione], the IC50 in experiment [1] is 0.001 to 25 nM; in experiment [2] (setting [8]), over 100 nM; in experiment [7], over 100 nM.

On to `COc1cc(F)cc(N2CCN(C(=O)CC[C@@]3(C)NC(=O)NC3=O)CC2)c1` [Cpd 19, (R)-5-[3-[4-(3-fluoro-5-methoxy-phenyl)piperazin-1-yl]-3-oxo-propyl]-5-methyl-imidazolidine-2,4-dione], for which the IC50 was 50 to 100 nM in experiment [1]; over 100 nM in experiment [2] (setting [8]); over 100 nM in experiment [3]; over 100 nM in experiment [4]; over 100 nM in experiment [5].

For the compound `COc1cc(N2CCN(C(=O)CC[C@@]3(C)NC(=O)NC3=O)CC2)cc(F)c1F` [Cpd 20, (R)-5-[3-[4-(3,4-difluoro-5-methoxy-phenyl)piperazin-1-yl]-3-oxo-propyl]-5-methyl-imidazolidine-2,4-dione], the IC50 in experiment [1] was 0.001 to 25 nM; in experiment [2] (setting [8]), over 100 nM; in experiment [3], over 100 nM; in experiment [4] it was over 100 nM; in experiment [5], over 100 nM.

Regarding `COc1cc(N2CCN(C(=O)CCC3(C)NC(=O)NC3=O)C[C@@H]2C)cc(F)c1F` (stereo partly shown) [Cpd 22, 5-[3-[(3 S)-4-(3,4-difluoro-5-methoxy-phenyl)-3-methyl-piperazin-1-yl]-3-oxo-propyl]-5-methyl-imidazolidine-2,4-dione], the IC50 in experiment [1] is 0.001 to 25 nM; in experiment [2] (setting [8]), over 100 nM; in experiment [3], over 100 nM; in experiment [4] it was over 100 nM; in experiment [5], over 100 nM.

`COc1cc(N2CCN(C(=O)CCC3(C)NC(=O)NC3=O)CC2)cc(Cl)c1Cl` (stereo not shown) [Cpd 48, 5-[3-[4-(3,4-dichloro-5-methoxy-phenyl)piperazin-1-yl]-3-oxo-propyl]-5-methyl-imidazolidine-2,4-dione]: the IC50 is 0.001 to 25 nM in experiment [1]; over 100 nM in experiment [6]; over 100 nM in experiment [2] (setting [8]); 50 to 100 nM in experiment [3]; over 100 nM in experiment [4]; over 100 nM in experiment [5].

Regarding `COc1cc(N2CCN(C(=O)CCC3(C)NC(=O)NC3=O)CC2)cc(Cl)c1F` (stereo not shown) [Cpd 50, 5-[3-[4-(3-chloro-4-fluoro-5-methoxy-phenyl)piperazin-1-yl]-3-oxo-propyl]-5-methyl-imidazolidine-2,4-dione], the IC50 in experiment [1] is 0.001 to 25 nM; in experiment [2] (setting [8]), over 100 nM; in experiment [3], over 100 nM; in experiment [4], over 100 nM; in experiment [5], over 100 nM.

Consider `COc1cncc(N2CCN(C(=O)CCC3(C4CC4)NC(=O)NC3=O)C[C@@H]2C)c1` (stereo partly drawn) [Cpd 60, 5-cyclopropyl-5-[3-[(3S)-4-(5-methoxy-3-pyridyl)-3-methyl-piperazin-1-yl]-3-oxo-propyl]imidazolidine-2,4-dione], for which the IC50 in experiment [1], in experiment [2] (setting [8]), in experiment [3] and in experiment [4] was over 100 nM throughout.

Regarding `COc1cc(F)ccc1N1CCN(C(=O)CC[C@@]2(C)NC(=O)NC2=O)CC1` [Cpd 78, (5R)-5-[3-[4-(4-fluoro-2-methoxy-phenyl)piperazin-1-yl]-3-oxo-propyl]-5-methyl-imidazolidine-2,4-dione], the IC50 in experiment [1], in experiment [3] and in experiment [4] was over 100 nM in each case.

Regarding `COc1ccc(Cl)cc1N1CCN(C(=O)CC[C@@]2(C)NC(=O)NC2=O)C[C@@H]1C` [Cpd 91, (5R)-5-[3-[(3 S)-4-(5-chloro-2-methoxy-phenyl)-3-methyl-piperazin-1-yl]-3-oxo-propyl]-5-methyl-imidazolidine-2,4-dione], the IC50 in experiment [1], in experiment [3] and in experiment [4] was over 100 nM each time.

As for `COc1cc(Cl)c(Cl)cc1N1CCN(C(=O)CC[C@@]2(C)NC(=O)NC2=O)CC1` [Cpd 94, (5R)-5-[3-[4-(4,5-dichloro-2-methoxy-phenyl)piperazin-1-yl]-3-oxo-propyl]-5-methyl-imidazolidine-2,4-dione], the IC50 in experiment [1] was 0.001 to 25 nM; in experiment [3] it was over 100 nM; in experiment [4] it was over 100 nM.

Consider `COc1cc(Cl)c(C)cc1N1CCN(C(=O)CC[C@@]2(C)NC(=O)NC2=O)C[C@@H]1C` [Cpd 95, (5R)-5-[3-[(3S)-4-(4-chloro-2-methoxy-5-methyl-phenyl)-3-methyl-piperazin-1-yl]-3-oxo-propyl]-5-methyl-imidazolidine-2,4-dione], for which the concentration for half-maximal inhibition (IC50) in experiment [1] was 0.001 to 25 nM; in experiment [3], over 100 nM; in experiment [4] it was over 100 nM.

With `COc1cc(N2CCN(C(=O)CC[C@H]3NC(=O)NC3=O)CC2)cc(F)c1F` [Cpd 128, (5R)-5-[3-[4-(3,4-difluoro-5-methoxy-phenyl)piperazin-1-yl]-3-oxo-propyl]imidazolidine-2,4-dione], the IC50 was 50 to 100 nM in experiment [1]; over 100 nM in experiment [2] (setting [8]); over 100 nM in experiment [3]; over 100 nM in experiment [4]; over 100 nM in experiment [5].

In the case of `COc1cc(N2CCN(C(=O)CC[C@H]3NC(=O)NC3=O)CC2)cc(F)c1Cl` [Cpd 143, (5R)-5-[3-[4-(4-chloro-3-fluoro-5-methoxy-phenyl)piperazin-1-yl]-3-oxo-propyl]imidazolidine-2,4-dione], the IC50 in experiment [1] is 0.001 to 25 nM; in experiment [2] (setting [8]), over 100 nM; in experiment [3] it was over 100 nM; in experiment [4], over 100 nM; in experiment [5], over 100 nM.

Regarding `COc1cc(N2CCN(C(=O)CC[C@H]3NC(=O)NC3=O)CC2)cc(Cl)c1Cl` [Cpd 145, (5R)-5-[3-[4-(3,4-dichloro-5-methoxy-phenyl)piperazin-1-yl]-3-oxo-propyl]imidazolidine-2,4-dione], the IC50 was 0.001 to 25 nM in experiment [1]; over 100 nM in experiment [6]; over 100 nM in experiment [2] (setting [8]); 50 to 100 nM in experiment [3]; over 100 nM in experiment [4]; over 100 nM in experiment [5].

Take `CCOc1cc(N2CCN(C(=O)CC[C@H]3NC(=O)NC3=O)CC2)cc(OC)c1Cl` [Cpd 149, (5R)-5-[3-[4-(4-chloro-3-ethoxy-5-methoxy-phenyl)piperazin-1-yl]-3-oxo-propyl]imidazolidine-2,4-dione]: the IC50 in experiment [1] was 50 to 100 nM; in experiment [3], over 100 nM; in experiment [4], over 100 nM.

As for `COc1cc(N2CCN(C(=O)CC[C@H]3NC(=O)NC3=O)CC2)cc(OC)c1F` [Cpd 151, (5R)-5-[3-[4-(4-fluoro-3,5-dimethoxy-phenyl)piperazin-1-yl]-3-oxo-propyl]imidazolidine-2,4-dione], the IC50 is 25 to 50 nM in experiment [1], over 100 nM in experiment [3] and over 100 nM in experiment [4].

Values taken from patent publication US10829478B2, “5-[3-[piperazin-1-yl]-3-oxo-propyl]-imidazolidine-2,4-dione derivatives as ADAMTS 4 and 5 inhibitors for treating e.g. osteoarthritis” (Galapagos NV, priority 2016, dated 2020).
